Experimental data from PubChem BioAssay AID492959 (The Scripps Research Institute Molecular Screening Center, 2010).
Active and inactive are the calls of the source.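 Rule for the calls: active = IC50 of 10 µM or lower; inactive = IC50 above 10 µM.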

Tested on: E. coli AddAB+ with T4 gene 2 phage, OD growth
Assay: inhibition of AddAB recombination enzyme – absorbance, E. coli, T4 phage, dose response (AID 492959);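 note: growth read as OD600 after 18 h at 37 °C; AddAB inhibitors let the phage kill the cells so OD falls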
[1] = AddAB enzyme is from H. pylori, T4 phage with nonsense-mutated gene 2

Row | Structure (SMILES) | IC50 [1] | IC50
1 | COc1cc(-c2nnc(SCc3cc(=O)oc4cc(O)c(O)cc34)o2)cc(OC)c1OC | > 119 µM (inactive) | –
2 | Cc1ccc(-c2oc3ccccc3c(=O)c2O)cc1 | > 119 µM (inactive) | –
3 | Oc1ccc(N=Nc2c(O)ccc3ccccc23)cc1 | > 118 µM (inactive) | –
4 | O=C(CCN1CCN(c2ccccc2)CC1)N/N=C/c1ccc([N+](=O)[O-])o1 | 29.3 µM (inactive) | –
5 | Oc1ccc2ccccc2c1/C=N/Nc1nnc(-c2ncc[nH]2)c2ccccc12 | > 119 µM (inactive) | –
6 | Cc1onc(-c2ccccc2)c1C(=O)NC(=S)NNC(=O)c1ccccc1O | > 119 µM (inactive) | –
7 | O=C(CSc1nc2ccccc2[nH]1)Nc1ccc(N2CCOCC2)cc1 | > 118 µM (inactive) | –
8 | COc1ccc(N/N=C(/N=Nc2nc(C)cc(=O)[nH]2)c2ccccc2)cc1 | > 119 µM (inactive) | –
9 | CC(=O)c1ccc(NC(=S)NC(NC(=O)c2ccco2)C(Cl)(Cl)Cl)cc1 (configuration not stated) | > 119 µM (inactive) | –
10 | Cc1ccc(C(C)C)c(OCc2ccc(C(=O)N/N=C/c3ccc(O)cc3O)cc2)c1 | > 119 µM (inactive) | –
11 | CCn1cc(C(=O)NCCc2ccccc2)c(=O)c2cc(F)c(N3CCN(C)CC3)cc21 | 20.4 µM (inactive) | –
12 | O=C(Nc1ccc([N+](=O)[O-])cc1)Nc1ccc(OC(F)F)c(Cl)c1 | > 119 µM (inactive) | –
13 | O=c1c2ccccc2nc(N/N=C/c2c(O)ccc3ccccc23)n1O | > 119 µM (inactive) | –
14 | CCC[C@@H](CN1CCC[C@H]1CN1C(N)=NC[C@@H]1Cc1ccccc1)N1C[C@@H]([C@H](C)CC)N(CCCC2CCCC2)C1=N | 16.2 µM (inactive) | –
15 | COc1ccc(NC(=O)CSc2nnc(-c3ccc(F)cc3)o2)cn1 | > 119 µM (inactive) | –
16 | CCCCC(=O)NC(c1ccccc1Cl)c1ccc2cccnc2c1O (configuration not stated) | > 119 µM (inactive) | –
17 | Cc1ccc(C[n+]2c(-c3ccc(C)cc3)cc(-c3ccc(C)cc3)cc2-c2ccc(C)cc2)cc1 | – | 18.4 µM (inactive)
18 | Cc1ccc(-c2nc3c(Cl)cc(Cl)cc3c(=O)n2O)cc1 | > 119 µM (inactive) | –
19 | C=CCc1cccc(/C=N/NC(=O)CCC(=O)Nc2ccc(F)cc2)c1O | > 119 µM (inactive) | –
20 | CCC(=O)NC(c1ccc(OC)cc1)c1cc(Cl)c2cccnc2c1O (configuration not stated) | > 119 µM (inactive) | –
21 | CC(=O)NC1CCCN(O)C(=O)/C=C(\C)CCOC(=O)C(NC(C)=O)CCCN(O)C(=O)/C=C(\C)CCOC(=O)C(NC(C)=O)CCCN(O)C(=O)/C=C(\C)CCOC1=O (configuration not stated) | > 119 µM (inactive) | –
22 | CCCCC(=O)NC(c1ccccc1)c1ccc2cccnc2c1O (configuration not stated) | > 118 µM (inactive) | –
23 | COc1cccc(/C=N/Nc2ccc([N+](=O)[O-])cn2)c1O | > 118 µM (inactive) | –
24 | C=CCn1c(O)c(N=Nc2ccccc2O)c2ccccc21 | 15.2 µM (inactive) | –

Row | Structure (SMILES) | IC50 [1] | IC50
25 | O=C(NC(NC(=S)Nc1ccc(Cl)cc1)C(Cl)(Cl)Cl)c1ccco1 (configuration not stated) | > 119 µM (inactive) | –
26 | COc1ccc2[nH]c3c(c2c1)CCNC3c1ccc([N+](=O)[O-])o1 (configuration not stated) | 116 µM (inactive) | –
27 | O=C(NNC(=O)c1cc2ccccc2cc1O)Nc1ccc(Br)cc1 | > 119 µM (inactive) | –
28 | CCOc1cccc(/C=N/NC(=O)c2cc(-c3cccn3C)n[nH]2)c1O | > 119 µM (inactive) | –
29 | O=C(/C=C/c1cccs1)NC(=S)NNC(=O)c1ccccc1O | > 119 µM (inactive) | –
30 | CCNc1c([N+](=O)[O-])c(=O)oc2ccccc12 | 51.6 µM (inactive) | –
31 | O=C(NNC(=O)c1cc(-c2ccncc2)nc2ccccc12)c1ccccc1O | > 119 µM (inactive) | –
32 | CC(C)C(=O)NC(c1cccc([N+](=O)[O-])c1)c1ccc2cccnc2c1O (configuration not stated) | > 119 µM (inactive) | –
33 | COc1cccc(/C=N/Nc2ncc(C(F)(F)F)cc2Cl)c1O | > 119 µM (inactive) | –
34 | CC(C)C(=O)N1CCN(c2ccc(NC(=O)c3ccc([N+](=O)[O-])o3)cc2)CC1 | 81.7 µM (inactive) | –
35 | CCCC(=O)NC(c1ccccc1)c1ccc2cccnc2c1O (configuration not stated) | > 119 µM (inactive) | –
36 | COc1ccc2nc(NC(=O)CCNC(=O)c3ccco3)sc2c1 | > 119 µM (inactive) | –
37 | CCCC(=O)NC(c1ccc(OC)cc1)c1ccc2cccnc2c1O (configuration not stated) | > 119 µM (inactive) | –
38 | O=C1c2ccccc2NC(c2ccc(-c3cccc([N+](=O)[O-])c3)o2)N1O (configuration not stated) | > 119 µM (inactive) | –
39 | C=CCSc1nsc(NC(=O)Nc2ccc(F)cc2)n1 | > 119 µM (inactive) | –
40 | CCOc1ccc2oc(C(=O)NNC(=O)c3ccccc3O)c(C)c2c1 | > 119 µM (inactive) | –
41 | CCCCOc1ccc(Cc2cnc(N)nc2N)cc1 | 79.6 µM (inactive) | –
42 | CCOc1ccc(NC(=S)NCc2nc3ccccc3[nH]2)cc1 | > 119 µM (inactive) | –
43 | Cc1cc(C(=O)N/N=C/c2ccc([N+](=O)[O-])o2)c(C)o1 | 30.4 µM (inactive) | –
44 | O=C(COC(=O)COc1ccccc1)Nc1ncc([N+](=O)[O-])s1 | > 39.5 µM (inactive) | –
45 | O=C(c1ccc([N+](=O)[O-])o1)N1CCOCC1 | 15.3 µM (inactive) | –
46 | C/C(=N\Nc1ccc2nncn2n1)c1ccccn1 | > 119 µM (inactive) | –
47 | O=[N+]([O-])c1ccc(/C=N/n2cnc3ccccc32)s1 | 46.8 µM (inactive) | –
